Patent US20240270712A1, “BENZIMIDAZOLE COMPOUND OR SALT THEREOF, CANINE FILARIASIS CONTROL AGENT CONTAINING SAME, AND METHOD OF USE THEREOF” (NIHON NOHYAKU CO., LTD., priority 2021, published 2024)

Tested on: L-3 stage larvae of canine filariae (Dirofilaria immitis)
Test: Impact evaluation test on growth of canine filariae
Assay type: cell-based
Details: 168 h, read-out: growth inhibition rate (growth from L3-stage larvae to L4-stage larvae)

FC(F)(F)C(F)(F)COc1ccc(-c2nc3cc(Br)c(Br)cc3[nH]2)cn1 [Compound 1-5, 5,6-dibromo-2-(6-(2,2,3,3,3-pentafluoropropyloxy)pyridin-3-yl)benzimidazole]
inhibition at 50 ppm: ≥ 50%
